Assay results published in patent publication US20040266843A1, “Sulfonamide substituted indolinones as inhibitors of DNA dependent protein kinase (DNA-PK)” (Sugen, Inc., priority 2003, published 2004).

test system: not listed separately; assay: Storage stability of stock solution; assay type: physicochemical; conditions: 2 mM in DMSO, stored at −70° C., after 12 months
Method: 3-[2,4-Diethyl-5-(2-oxo-5-phenylsulfamoyl-1,2-dihydro-indol-3-ylidenemethyl)-1H-pyrrol-3-yl]-propionic acid was dissolved in DMSO at 20 mg/ml and stored at −70° C. Calicheamicin μl was a generous gift from George Ellestad (Wyeth-Ayers Research). The drug was dissolved at 2 mM in DMSO (Sigma) and stored at −70° C. […] Wortmannin (Sigma) was dissolved at 1 mg/ml in DMSO and stored at −70° C. Recombinant p110 was purchased from Alexis and stored at −70° C. The glioblastoma cell line Mo59K and primary human fibroblasts was grown in Dulbecos MEM with glutamax (Invitrogen) supplemented with 10% Fetal calf serum, streptomycin and penicillin at 37° C. in a humidified cell incubator with 5% CO2. FACS analysis of cell cycle distribution after propiumiodide staining was done using standard protocols. Monolayers were irradiated on ice using a Philips RT 100 X-ray machine. An acceleration voltage of 70 kV was used.

**Q.** Which “loss of activity on storage” value does the source give for calicheamicin μl here?
**A.** no loss of activity

biological target: DNA-PKcs (Homo sapiens, UniProt P78527); assay: DNA-PK assay, Scintillation Proximity Assay (SPA) format; assay type: biochemical; conditions: room temperature, 0.23 nM DNA-PKcs, 0.3 μM ATP, 1% DMSO
Method: The assay for DNA-PK was optimized to be performed in 96-well plates using a Scintillation Proximity Assay (SPA) format at room temperature. […] When inhibitors were included, they were diluted to 5× the desired concentration in 5% DMSO and diluted 1:5 in the reaction mixture bringing the final DMSO concentration to 1%. […] Activating DNA-DNA fragment consisting of 32 complementary base pairs with 5 non-complementary T's on both ends of the two strands Sequence-[NT], and of the complementary strand-[NT]. […] Peptide substrate-biotin-[…]. Dissolved in DMSO at a concentration of 5 mg/ml for the stock solution. Alternatively, fragments of the peptide substrate can be used, such as, without limitation, […]. The kinase reaction was stopped by adding […] of a solution containing 50 μM ATP, 5 mM EDTA, 0.1% Triton X-100, and 0.5 mg of streptavidin coated polyvinyltoluene SPA beads (Amersham). After a 10 min. incubation and a short spin (to pellet the beads), the plates were read on a Trilux plate reader.

DNA-PKcs, sequence (P78527 whole entry, the tested form may be a part): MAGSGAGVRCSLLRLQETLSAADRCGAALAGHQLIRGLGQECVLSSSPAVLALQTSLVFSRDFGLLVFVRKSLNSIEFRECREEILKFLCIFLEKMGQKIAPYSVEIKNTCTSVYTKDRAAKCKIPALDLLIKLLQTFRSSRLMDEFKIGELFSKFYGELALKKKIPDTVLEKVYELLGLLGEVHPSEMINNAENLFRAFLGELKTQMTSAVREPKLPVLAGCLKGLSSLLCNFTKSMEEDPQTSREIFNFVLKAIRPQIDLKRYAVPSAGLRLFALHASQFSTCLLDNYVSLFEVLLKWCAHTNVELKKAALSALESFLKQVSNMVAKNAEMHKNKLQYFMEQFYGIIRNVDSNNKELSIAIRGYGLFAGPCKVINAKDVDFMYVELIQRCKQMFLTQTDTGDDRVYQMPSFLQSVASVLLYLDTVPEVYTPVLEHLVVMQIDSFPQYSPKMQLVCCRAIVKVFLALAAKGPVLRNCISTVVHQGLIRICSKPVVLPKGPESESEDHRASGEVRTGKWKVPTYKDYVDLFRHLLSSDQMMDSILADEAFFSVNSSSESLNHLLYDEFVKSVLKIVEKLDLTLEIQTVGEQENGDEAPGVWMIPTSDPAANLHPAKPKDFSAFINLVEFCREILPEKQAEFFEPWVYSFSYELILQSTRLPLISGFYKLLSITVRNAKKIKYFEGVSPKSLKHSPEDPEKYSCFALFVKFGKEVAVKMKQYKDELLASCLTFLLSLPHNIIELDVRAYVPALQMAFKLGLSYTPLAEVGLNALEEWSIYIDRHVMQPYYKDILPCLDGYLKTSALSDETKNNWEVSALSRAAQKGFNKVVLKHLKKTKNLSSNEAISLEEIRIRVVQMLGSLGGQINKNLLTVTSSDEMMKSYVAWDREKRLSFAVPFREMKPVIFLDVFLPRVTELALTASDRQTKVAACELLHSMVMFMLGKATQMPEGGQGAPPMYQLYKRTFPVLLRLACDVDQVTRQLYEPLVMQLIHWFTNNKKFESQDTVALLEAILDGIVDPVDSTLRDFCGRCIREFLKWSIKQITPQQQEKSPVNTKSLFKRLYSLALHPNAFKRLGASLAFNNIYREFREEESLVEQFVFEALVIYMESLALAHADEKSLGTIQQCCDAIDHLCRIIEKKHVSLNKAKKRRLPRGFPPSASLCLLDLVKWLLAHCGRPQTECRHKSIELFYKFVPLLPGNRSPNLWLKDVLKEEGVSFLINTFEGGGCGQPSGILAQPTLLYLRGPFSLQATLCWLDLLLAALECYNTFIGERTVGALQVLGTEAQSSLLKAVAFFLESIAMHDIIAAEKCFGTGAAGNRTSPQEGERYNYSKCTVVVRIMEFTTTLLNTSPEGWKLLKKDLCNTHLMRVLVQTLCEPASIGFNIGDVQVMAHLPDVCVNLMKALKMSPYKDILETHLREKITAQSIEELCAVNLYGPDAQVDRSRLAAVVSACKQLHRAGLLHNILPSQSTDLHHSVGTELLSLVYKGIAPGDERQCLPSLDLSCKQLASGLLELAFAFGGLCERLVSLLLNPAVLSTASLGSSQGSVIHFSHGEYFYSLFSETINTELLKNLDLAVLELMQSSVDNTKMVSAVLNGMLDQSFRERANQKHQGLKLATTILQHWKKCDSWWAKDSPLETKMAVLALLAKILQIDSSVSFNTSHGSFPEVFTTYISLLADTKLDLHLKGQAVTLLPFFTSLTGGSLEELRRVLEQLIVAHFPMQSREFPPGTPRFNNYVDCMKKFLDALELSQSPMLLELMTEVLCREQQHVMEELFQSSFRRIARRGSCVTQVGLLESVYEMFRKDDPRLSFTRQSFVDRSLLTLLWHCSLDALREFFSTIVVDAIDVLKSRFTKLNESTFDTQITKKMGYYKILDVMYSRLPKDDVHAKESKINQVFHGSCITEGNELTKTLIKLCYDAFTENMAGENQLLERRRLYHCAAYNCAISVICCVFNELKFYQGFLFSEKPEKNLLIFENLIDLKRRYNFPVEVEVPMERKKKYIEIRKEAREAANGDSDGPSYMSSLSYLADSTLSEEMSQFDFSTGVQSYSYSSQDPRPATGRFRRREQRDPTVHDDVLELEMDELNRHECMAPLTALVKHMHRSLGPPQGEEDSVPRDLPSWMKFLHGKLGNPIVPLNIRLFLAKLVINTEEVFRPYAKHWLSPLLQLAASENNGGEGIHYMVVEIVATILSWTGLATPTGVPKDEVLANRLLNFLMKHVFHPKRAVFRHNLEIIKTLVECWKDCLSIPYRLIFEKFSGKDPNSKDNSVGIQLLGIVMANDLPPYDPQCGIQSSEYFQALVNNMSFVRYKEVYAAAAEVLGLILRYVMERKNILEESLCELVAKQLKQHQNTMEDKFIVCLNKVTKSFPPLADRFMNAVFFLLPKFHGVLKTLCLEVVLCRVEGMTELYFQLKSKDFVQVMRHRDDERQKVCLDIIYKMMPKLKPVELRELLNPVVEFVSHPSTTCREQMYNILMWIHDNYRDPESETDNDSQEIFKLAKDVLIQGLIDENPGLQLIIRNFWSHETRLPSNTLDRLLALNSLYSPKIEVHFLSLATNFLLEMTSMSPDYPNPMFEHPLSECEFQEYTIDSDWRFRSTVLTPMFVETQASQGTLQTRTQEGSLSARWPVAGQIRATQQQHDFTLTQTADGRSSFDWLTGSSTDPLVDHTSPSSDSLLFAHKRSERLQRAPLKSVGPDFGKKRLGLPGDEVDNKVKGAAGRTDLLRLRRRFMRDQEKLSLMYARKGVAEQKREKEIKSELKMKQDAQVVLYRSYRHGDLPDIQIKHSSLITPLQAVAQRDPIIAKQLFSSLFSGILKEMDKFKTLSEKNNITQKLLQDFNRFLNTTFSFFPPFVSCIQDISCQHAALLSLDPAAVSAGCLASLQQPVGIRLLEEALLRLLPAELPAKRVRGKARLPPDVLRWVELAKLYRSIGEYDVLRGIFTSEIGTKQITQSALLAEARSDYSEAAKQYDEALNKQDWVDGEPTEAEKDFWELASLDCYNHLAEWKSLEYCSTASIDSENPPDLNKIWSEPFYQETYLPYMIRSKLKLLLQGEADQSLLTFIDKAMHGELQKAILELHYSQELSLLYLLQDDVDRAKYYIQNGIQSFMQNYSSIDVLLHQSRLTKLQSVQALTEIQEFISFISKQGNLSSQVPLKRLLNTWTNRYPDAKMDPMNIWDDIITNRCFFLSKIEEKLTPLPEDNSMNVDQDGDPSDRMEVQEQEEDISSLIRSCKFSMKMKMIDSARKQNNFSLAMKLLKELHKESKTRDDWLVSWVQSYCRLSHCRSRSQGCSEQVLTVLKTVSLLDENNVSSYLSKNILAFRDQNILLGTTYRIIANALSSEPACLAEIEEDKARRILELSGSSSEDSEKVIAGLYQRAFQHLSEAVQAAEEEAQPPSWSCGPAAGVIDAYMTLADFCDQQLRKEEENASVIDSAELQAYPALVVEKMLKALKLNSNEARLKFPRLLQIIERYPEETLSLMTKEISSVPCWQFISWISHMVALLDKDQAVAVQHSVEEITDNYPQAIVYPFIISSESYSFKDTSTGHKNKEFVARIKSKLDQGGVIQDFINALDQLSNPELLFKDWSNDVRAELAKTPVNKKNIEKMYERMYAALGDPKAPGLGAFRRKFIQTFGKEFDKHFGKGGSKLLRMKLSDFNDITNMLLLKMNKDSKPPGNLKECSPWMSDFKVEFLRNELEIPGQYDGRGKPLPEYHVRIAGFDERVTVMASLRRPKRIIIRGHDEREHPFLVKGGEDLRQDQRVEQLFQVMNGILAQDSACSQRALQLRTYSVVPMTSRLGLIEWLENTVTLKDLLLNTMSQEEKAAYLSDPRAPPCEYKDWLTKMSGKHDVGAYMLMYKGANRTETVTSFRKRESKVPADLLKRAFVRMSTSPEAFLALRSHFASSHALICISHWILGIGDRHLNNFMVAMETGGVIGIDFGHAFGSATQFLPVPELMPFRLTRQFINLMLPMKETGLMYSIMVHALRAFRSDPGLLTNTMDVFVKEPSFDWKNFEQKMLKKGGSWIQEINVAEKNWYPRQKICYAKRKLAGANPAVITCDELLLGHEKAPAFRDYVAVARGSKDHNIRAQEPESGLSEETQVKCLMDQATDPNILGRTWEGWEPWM

**Q.** Which IC50 does the source give for `CCc1[nH]c(/C=C2\C(=O)Nc3ccc(S(=O)(=O)Nc4ccccc4)cc32)c(CC)c1CCC(=O)O` [Example 83, 3-[2,4-Diethyl-5-(2-oxo-5-phenylsulfamoyl-1,2-dihydro-indol-3-ylidenemethyl)-1H-pyrrol-3-yl]-propionic acid] here?
**A.** 1600 nM

**Q.** With `CNS(=O)(=O)c1ccc2c(c1)C(=Cc1[nH]c3c(c1CCCN(C)C)CCCC3)C(=O)N2` [3-{3-(3-dimethylamino-propyl)-4,5,6,7-tetrahydro-1H-indol-2-ylmethylene]-2-oxo-2,3-dihydro-1H-indole-5-sulfonic acid methylamide] as the molecule, how does the IC50 read?
**A.** 66000 nM

**Q.** Which IC50 does the source give for “2-oxo-3-[5-(2-pyrrolidin-1-yl-ethoxy-1H-indol-2-ylmethylene]-2,3-dihydro-1H-indole-sulfonic acid amide” here?
**A.** 1700 nM

**Q.** For `CCN(CC)CCNC(=O)c1c(C)[nH]c(C=C2C(=O)Nc3ccc(Br)cc32)c1C` [5-(5-bromo-2-oxo-1,2-dihydro-indol-3-ylidenemethyl)-2,4-dimethyl-1H-pyrrole-3-carboxylic acid-(2-diethylamino-ethyl)-amide], which IC50 is on record?
**A.** 34000 nM

**Q.** Which IC50 does the source give for `Cc1c(CCC(=O)O)c[nH]c1/C=C1\C(=O)Nc2ccc(I)cc21` [3-{5-[(Z)-(5-iodo-2-oxo-1,2-dihydro-3H-indol-3-ylidene)methyl]-4-methyl-1H-pyrrol-3-yl}propanoic acid] here?
**A.** 1500 nM
